Patent publication US9138492B2, “Particle containing hydrophobic dye having cyanine structure, and contrast agent containing the particle” (CANON KABUSHIKI KAISHA, priority 2012, dated 2015)

Assay: Evaluation of hydrophobicity degree of dye by TLC (Rf value)
Type: physicochemical
Conditions: of the dye used; TLC glass plate RP-18, methanol containing 1 wt % lithium chloride
Description: (Evaluation Method for Hydrophobicity Degree of Hydrophobic Dye Having Cyanine Structure) In order to compare the hydrophobicity degrees of hydrophobic dyes each having a cyanine structure, an evaluation was performed through use of a thin-layer liquid chromatography (hereinafter may be abbreviated as TLC) method. A TLC glass plate RP-18 (manufactured by Merck) was used as a plate for development, and a methanol solution containing 1 wt % of lithium chloride was used as a developing solvent. According to an ordinary method, a dye solution was spotted on the origin, and a relative migration distance (hereinafter may be abbreviated as Rf value) was calculated based on the following equation. Rf value=Distance from origin to center of spot of component/Distance from origin to solvent front

SMILES	Rf value
CN1/C(=C/C=C2\CCCC(/C=C/C3=[N+](C)c4ccc5ccccc5c4C3(C)C)=C2Cl)C(C)(C)c2c1ccc1ccccc21 [Chemical formula (A3), 2-[2-[2-chloro-3-[2-(1,3-dihydro-1,1,3-trimethyl-2H-benzo[e]-indol-2-ylidene)-ethylidene]-1-cyclohexen-1-yl]-ethenyl]-1,1,3-trimethyl-1H-benzo[e]indolium perchlorate]	0.09
CCN1/C(=C/C=C/C=C/C=C/C2=[N+](CC)c3ccccc3C2(C)C)C(C)(C)c2ccccc21 [Chemical formula (A2), 3H-indolium, 1-ethyl-2-[7-(1-ethyl-1,3-dihydro-3,3-dimethyl-2H-indol-2-ylidene)-1,3,5-heptatrien-1-yl]-3,3-dimethyl-, iodide]	0.5

Other lines, results leading:

Rf value	SMILES
0.45	CN1/C(=C/C=C/C=C/C=C/C2=[N+](C)c3ccccc3C2(C)C)C(C)(C)c2ccccc21 [Chemical formula (A1), 1,1′,3,3,3′,3′-hexamethylindotricarbocyanine iodide]
0.31	CN1/C(=C/C=C/C=C/C=C/C2=[N+](C)c3ccc4ccccc4c3C2(C)C)C(C)(C)c2c1ccc1ccccc21 [Chemical formula (C2), 1,1′,3,3,3′,3′-hexamethyl-4,4′,5,5′-dibenzo-2,2′-indotricarbocyanine perchlorate]
0.45	CN1\C(=C/C=C/C=C/C=C/C2=[N+](C)c3ccccc3C2(C)C)C(C)(C)c2ccccc21 [Chemical formula (C1), 1,1′,3,3,3′,3′-hexamethylindotricarbocyanine perchlorate]
